Measurements taken from PubChem BioAssay AID1981 (Southern Research Specialized Biocontainment Screening …, 2009).
Several values for one entry are separate records, joined by “and”; a condition that tells them apart may be missing. Equal entries are not always repeated.

Test system: S. Typhimurium PhoP-promoter GFP reporter counterscreen, fluorescence, 4 h
Test: S. Typhimurium GFP fluorescence modified counterscreen for PhoP regulon inhibitor project dose response (AID 1981)

| SMILES | IC50 |
| --- | --- |
| CCn1cc(C(=O)O)c(=O)c2ccc(C)nc21 | 117 µM |
| COC(=O)C1C(O)C(C)C(O)C(C)(O)/C=C\C=C(/C)C(=O)Nc2c(C)c(OC(C)=O)c3c(c2O)C(=O)C(C)=C2OCOC(=C23)/C(C)=C/C(C)(O)C(O)C(C)C1O (stereo unspecified) | 18.6 µM |
| CC(C)CCNCC(O)CON=C1c2ccccc2-c2ccccc21 (stereo unspecified) | 136 µM |
| CN(C)C1C(=O)C(C(N)=O)=C(O)C2(O)C(=O)C3=C(O)c4c(O)cccc4C(C)(O)C3CC12 (stereo unspecified) | 0.67 µM |
| O=[N+]([O-])c1cc(/C=N/Nc2nc3ccccc3[nH]2)c(O)cc1O | 32.5 µM |
| CCCC(=O)NC(c1ccc(Cl)cc1)c1ccc2cccnc2c1O (stereo unspecified) | 62.3 µM |
| CCn1cc(C(=O)O)c(=O)c2cc(F)c(N3CCN(C(=S)NC(=O)c4cccc(F)c4)CC3)cc21 | 35.1 µM |
| Cc1ccc(Nc2c3c(nc4ccccc24)CCC3)cc1 | 146 µM |
| O=[N+]([O-])c1cc(CN2CCCC2)c2cccnc2c1O | 57.1 µM |
| C[CH2][Hg][S]c1ccccc1C(=O)O | 28.1 µM |
| C=CCNc1ncnc2c1[nH]c1ccccc12 | 106 µM |
| Nc1ncncc1-c1ccc([N+](=O)[O-])cc1 | 136 µM |
| CNC[C@H](CC1CCCCC1)NC[C@H](Cc1ccccc1)NCCC12CC3CC(CC(C3)C1)C2 | 19.6 µM |
| O=C(NN=C1CCN(Cc2ccccc2)CC1)c1cc2ccccc2cc1O | 128 µM |
| COc1ccc(C(C[N+](=O)[O-])c2c(-c3ccccc3)cc3ccccn23)cc1 (stereo unspecified) | 56.9 µM |
| O=C1C=C(N2CCOCC2)c2ccccc2C1=O | 69.9 µM |
| O=[N+]([O-])c1ccc(O)c2ncccc12 | 2.7 µM |
| Cc1cc(C)c(NC(=O)c2cn3c4c(c(N5CCN(C)CC5)c(F)cc4c2=O)OCC3C)c(C)c1 (stereo unspecified) | 35.1 µM |
| CCCCN(CCCC)C(=O)c1cn(CC)c2cc(N3CCN(C)CC3)c(F)cc2c1=O | 14.2 µM |
| Oc1cccc(C=NCc2ccccc2)c1O | 109 µM |
| CCn1cc(C(=O)NCCN(C)C)c(=O)c2cc(F)c(N3CCN(C)CC3)cc21 | 123 µM |
| C[C@H]1O[C@@H](n2cc(F)c(=O)[nH]c2=O)[C@H](O)[C@@H]1O | 11.8 µM |
| Nc1nnc(-c2cccc(Cl)c2Cl)c(N)n1 | 66.4 µM |

| SMILES | IC50 |
| --- | --- |
| CC(C)(C)CC(C)(C)c1ccc(OCCOCC[N+](C)(C)Cc2ccccc2)cc1 | 47.1 µM |
| O=C(N/N=C/c1cccc([N+](=O)[O-])c1O)c1cccs1 | 20.4 µM |
| CCCCCCCCCn1c2c(c(=N)c3c1CCC3)CCC2 | 84.5 µM |
| Clc1ccc(Cl)c(OCCCCNCc2ccccc2)c1 | 131 µM |
| Cc1cccc(Nc2cc(C)c3c(O)cccc3n2)c1C | 82.7 µM |
| c1cnc2c(c1)ccc1cccnc12 | 40 µM |
| COc1ccc(C(C[N+](=O)[O-])n2nc(C)cc2C)cc1 (stereo unspecified) | 21.6 µM |
| O=C(CSc1nc2ccccc2s1)N/N=C/c1cc([N+](=O)[O-])ccc1O | 85.3 µM |
| Cc1cc(C(=O)N/N=C/c2ccc(O)c(O)c2O)c(C)n1-c1ccccc1 | 30 µM |
| COc1cc([N+](=O)[O-])cc(/C=N\NC(=O)C2COc3ccccc3O2)c1O (stereo unspecified) | 141 µM |
| Fc1ccc(CCNCc2ccc(Cl)c(Cl)c2)cc1 | 109 µM |
| Nc1ncn([C@@H]2O[C@H](CO)[C@@H](O)[C@H]2O)c(=O)n1 | 19.4 µM |
| CN(O)/C=c1/ccc2c(n1)C(=O)C=CC=2 | 54.1 µM |
| CCOC(=O)c1ccc(-c2ccc(C3Nc4ccccc4C(=O)N3O)o2)cc1 (stereo unspecified) | 112 µM |
| O=C(Cc1ccccc1)Nc1cccc(N2C(=O)C=CC2=O)c1 | 142 µM |
| CNc1nc(NCc2ccccc2)c2ccccc2n1 | 96.7 µM |
| O=C(N/N=C/c1ccc([N+](=O)[O-])o1)c1ccc(O)cc1 | 21 µM |
| CCCCCCCCCCOC(=O)Cn1c(COc2ccc(OC)cc2)[n+](C)c2ccccc21 | 36.5 µM and 36.1 µM |
| Nc1c(Cl)ncnc1N/N=C/c1ccccn1 | 32.2 µM |
| O=C1C(SCCO)=C(SCCO)C(=O)c2ccccc21 | 64.9 µM |
| Nc1nonc1-n1nnc(C(=O)N/N=C/c2cc(Br)ccc2O)c1CSC1=NCCS1 | 145 µM |
| Cc1cc(/C=N/n2c(COc3ccccc3)nc3ccccc3c2=O)c(O)c([N+](=O)[O-])c1 | 61.4 µM |
| CC(C)COc1ccc(Cc2cnc(N)nc2N)cc1 | 127 µM |

| SMILES | IC50 |
| --- | --- |
| O=[N+]([O-])c1cc(F)c2cccnc2c1O | 9.5 µM |
| Oc1c(Cl)cc(Cl)c2cccnc12 | 17.9 µM |
| Cc1ccc(C(=O)N/N=C/c2cc(Br)ccc2O)cn1 | 68.4 µM |
| Cc1ccc(-c2csc(NC(=O)C[n+]3cc(-c4ccc(C)cc4)n4c3CCC4)n2)cc1 | 45.2 µM |
| CCCCCCCCCCOC(=O)Cn1c(COc2ccccc2)[n+](C)c2ccccc21 | 64.3 µM |
| CCc1ccc(-c2nn(-c3ccccc3)cc2CSC(=N)N)cc1 | 40.4 µM |
| CCOC(=O)N1CCN(C(c2cccnc2)c2ccc3cccnc3c2O)CC1 (stereo unspecified) | 57.1 µM |
| C/C(=N\NC(=O)c1cc2ccccc2cc1O)c1ccccn1 | 31.9 µM |
| NC1=NC[C@H](Cc2ccccc2)N1CCCCC1CCCCC1 | 61.1 µM |
| Cc1cc(C(C)(C)CC(C)(C)C)ccc1OCCOCC[N+](C)(C)Cc1ccccc1 | 34.6 µM |
| O=C(C[n+]1cc(-c2ccc(Cl)cc2)n2c1CCC2)Nc1nc(-c2ccc(F)cc2)cs1 | 68.2 µM |
| Cc1cc(SCC(=O)N/N=C/c2ccc(O)c(O)c2O)c(C)cc1Br | 22.8 µM |
| CCn1nc(C(=O)O)c(=O)c2cc3c(cc21)OCO3 | 52.1 µM |
| CCCC(=O)NC(c1cccs1)c1cc([N+](=O)[O-])c2cccnc2c1O (stereo unspecified) | 30.1 µM |
| C#CCOCCOCCOCCNc1nc(N2CCN(C(=O)CCCCCCCCCCNC(=O)[C@H](CCCN=C(N)N)n3cc(C[C@@H](C)CC)nn3)CC2)nc(N2CCN(C(=O)CCCCCCCCCCNC(=O)[C@@H]([C@H](C)CC)n3cc(CCCCCN)nn3)CC2)n1 | 41.4 µM |
| CCC(C)(C)c1ccc(OCCCC[n+]2ccc(C)cc2)c(C(C)(C)CC)c1 | 83.2 µM |
| C/C(=N\N=C(N)N)c1ccc(Cl)c(Cl)c1 | 92.6 µM |
| Cc1ccc(Nc2nc(N)c3ccccc3n2)cc1Cl | 74.4 µM |
| CCn1cc(C(=O)O)c(=O)c2cnc(N3CCNCC3)nc21 | 58.4 µM |
| CCNC(=S)NNC(=O)c1ccccn1 | 33.7 µM |
| CC(C(=O)c1ccc(-c2ccccc2)cc1)[n+]1cccc(NC(=O)c2ccccc2)c1 (stereo unspecified) | 106 µM |
| CCOC(=O)N1CCN(C(=O)c2cn(CC)c3cc(N4CCN(C)CC4)c(F)cc3c2=O)CC1 | 8.51 µM |
| O=Cc1ccc(O)c2ncccc12 | 6.78 µM |

| SMILES | IC50 |
| --- | --- |
| CCCCCCCCCCCCCCCC[n+]1cccc(C(=O)N(CC)CC)c1 | 29.6 µM |
| CCn1cc(C(=O)O)c(=O)c2cc(F)c(N3CCN(C)CC3)cc21 | 1.46 µM |
| CN1CCN(C(c2ccc(Br)cc2)c2cc(Cl)c3cccnc3c2O)CC1 (stereo unspecified) | 24 µM |
| Cc1ccnc(NC(c2cccnc2)c2ccc3cccnc3c2O)c1 (stereo unspecified) | 76.4 µM |
| Cc1cc(C(=O)N/N=C/c2cc(Br)cc([N+](=O)[O-])c2O)c2ccccc2n1 | 93.5 µM |
| CCn1cc(C(=O)O)c(=O)c2cc(F)c(N3CCN(C(=O)Nc4ccccc4)CC3)cc21 | 27.7 µM |
| COc1ccc(CNC[C@@H](CCCCN(C)Cc2ccc(OC)cc2)N2C[C@H](c3ccccc3)N(CCc3ccc(Cl)c(Cl)c3)C(=O)C2=O)cc1 | 108 µM |
| O=C(C[n+]1cccc(CNC(=O)c2ccc(OC(F)F)cc2)c1)Nc1ccc(SC(F)F)cc1 | 96.3 µM |
| CC(=O)Oc1cc2cccc(OC(C)=O)c(=O)c2c(OC(C)=O)c1OC(C)=O | 17.7 µM |
| COc1cc(Cc2cc(N)nc(N)n2)cc(OC)c1OC | 1 µM |
| CNC[C@H](Cc1ccccc1)NC[C@@H](Cc1cccc2ccccc12)NCCc1ccc(C)cc1 | 29.9 µM |
| O=C(N/N=C/c1cccs1)c1cccs1 | 81.4 µM |
| Oc1ccc(N2CCN(Cc3ccc(OCCCN4CCCCC4)cc3)CC2)cc1 | 110 µM |
| CCCCCCCSc1cc(OC)c(CCNC)cc1OC | 71.8 µM |
| CCCCCCCCCC[n+]1cccc2c3ccccc3ccc21 | 43.8 µM |
| Nc1nc2ccccc2n1CCOc1ccccc1Cl | 104 µM |
| C/C(=N\Nc1nc2ccccc2[nH]1)c1ccccn1 | 29.3 µM |
| O=C(N/N=C\c1cccc([N+](=O)[O-])c1O)C1COc2ccccc2O1 (stereo unspecified) | 96 µM |
| O=C(N/N=C/c1cc(Cl)ccc1O)c1cccnc1 | 35 µM |
| O=C(N/N=C/c1c[nH]c2ccccc12)c1cc(-c2ccc3ccccc3c2)n[nH]1 | 68.6 µM |
| CCCOc1ccc(C(=O)NC(=S)N2CCN(c3cc4c(cc3F)c(=O)c(C(=O)O)cn4CC)CC2)cc1 | 18.6 µM |
| COc1cnc(-c2ccccn2)[nH]c1=O | 45.7 µM |
| CC(C)C(=O)NC(c1cccc([N+](=O)[O-])c1)c1ccc2cccnc2c1O (stereo unspecified) | 23.3 µM |

| SMILES | IC50 |
| --- | --- |
| CN(C)C1C(=O)C(C(N)=O)=C(O)C2(O)C(=O)C3=C(O)c4c(O)cccc4C(C)(O)C3C(O)C12 (stereo unspecified) | 1.35 µM |
| Cc1ccc(C(=O)Sc2cccccc2=O)cc1 | 16.5 µM |
| NC1=NC[C@H](Cc2ccc(O)cc2)N1CCCCC1CCCCC1 | 84.1 µM |
| O=S1(=O)CCC(NC(=S)SCCOc2ccccc2)C1 (stereo unspecified) | 86.5 µM |
| Cc1cc(NC(c2cccnc2)c2ccc3cccnc3c2O)no1 (stereo unspecified) | 130 µM |
| CCc1ccc(CNc2ccc(O)cc2)cc1 | 94.9 µM |
| O=C(N/N=C/c1ccc(Sc2ccccn2)o1)c1cc2ccccc2cc1O | 110 µM |
| CCn1cc(C(=O)O)c(=O)c2cc(F)c(N3CCN(C(=S)NC(=O)c4cccc(C)c4)CC3)cc21 | 25.4 µM |
| Nc1ncn(C2O[C@H](CO)[C@@H](O)[C@H]2O)c(=O)n1 (stereo partly specified) | 13.2 µM |
| OCc1ccc(O)c2ncccc12 | 146 µM |
| CN(C)c1ccc(/C=C/c2ccc3c4ccccc4ccc3[n+]2-c2ccccc2)cc1 | 18.8 µM |
| C#CCOCCOCCOCCNc1nc(N2CCN(C(=O)CCCCCCCCCCNC(=O)[C@H](CCCCN)n3cc(C[C@@H](C)CC)nn3)CC2)nc(N2CCN(C(=O)CCCCCCCCCCNC(=O)[C@H](CCCN=C(N)N)n3cc(C[C@@H](C)CC)nn3)CC2)n1 | 140 µM |
| O=C(N/N=C/c1cc2c3c(c1O)CCCN3CCC2)c1ccccc1O | 135 µM |
| CCN1CCN(C(c2ccc(C(F)(F)F)cc2)c2ccc3cccnc3c2O)CC1 (stereo unspecified) | 46.1 µM |
| COc1ccc2[nH]c3c(C)c4ccncc4c(C)c3c2c1 | 80.6 µM |
| Cc1ccc(C(C[N+](=O)[O-])c2c(N)n(C)c(=O)n(C)c2=O)cc1 (stereo unspecified) | 18.4 µM |
| COc1cccc(/C=N/Nc2ncc(C(F)(F)F)cc2Cl)c1O | 34.7 µM |
| C[C@H]1c2cccc(O)c2C(O)=C2C(=O)C3(O)C(O)=C(C(N)=O)C(=O)[C@@H](N(C)C)[C@@H]3[C@@H](O)[C@@H]21 (stereo partly specified) | 1.83 µM |
| CC1CCc2c(N3CCC(O)CC3)c(F)cc3c(=O)c(C(=O)O)cn1c23 (stereo unspecified) | 6.56 µM |
